Where “and” joins values, the source holds several entries; their conditions need not be identical. Identical values can stand only once.
How the values were obtained:
Format in all cases: functional
DU-145 [1] = test: Cytotoxicity was evaluated against DU-145 human prostate cancer cells at 20 uM concentration
DU-145 [2] = test: Cytotoxicity was evaluated against DU-145 human prostate cancer cells at 50 uM concentration
DU-145 [3] = test: Cytotoxicity towards DU145 human prostate cancer cell was expressed as median effect dose (MED)
DU-145 [4] = test: Cytotoxicity was evaluated against DU-145 human prostate cancer cells at 0.7 log dose
DU-145 [5] = test: Cytotoxicity was evaluated against DU-145 human prostate cancer cells at 1.7 log dose
DU-145 [6] = test: Cytotoxicity was evaluated against DU-145 human prostate cancer cells at 10 uM concentration
DU-145 [7] = test: Cytotoxicity was evaluated against DU-145 human prostate cancer cells at 13 uM concentration
DU-145 [8] = test: Cytotoxicity was evaluated against DU-145 human prostate cancer cells at 15 uM concentration
DU-145 [9] = test: Cytotoxicity was evaluated against DU-145 human prostate cancer cells at 0.3 log dose
DU-145 [10] = test: Cytotoxicity was evaluated against DU-145 human prostate cancer cells at 1.4 log dose
DU-145 [11] = test: Cytotoxicity was evaluated against DU-145 human prostate cancer cells at 2 log dose
DU-145 [12] = test: Cytotoxicity was evaluated against DU-145 human prostate cancer cells at 180 uM concentration
DU-145 [13] = test: Cytotoxicity was evaluated against DU-145 human prostate cancer cells at 35 uM concentration
DU-145 [14] = test: Cytotoxicity was evaluated against DU-145 human prostate cancer cells at 60 uM concentration
DU-145 [15] = test: Cytotoxicity was evaluated against DU-145 human prostate cancer cells at 1.5 log dose
DU-145 [16] = test: Cytotoxicity was evaluated against DU-145 human prostate cancer cells at 100 uM concentration
DU-145 [17] = test: Cytotoxicity was evaluated against DU-145 human prostate cancer cells at 110 uM concentration

SMILES: CC(=O)N[C@@H](C(=O)N[C@]1(CO)O[C@H](CO)[C@@H](O)[C@@H]1O)C(C)(C)SN=O
- Surviving fraction (DU-145 [1]): 0.45
- Surviving fraction (DU-145 [2]): 0.2
- MED (DU-145 [3]): 8.5 µM
- Log effect (DU-145 [4]): -0.03
- Log effect (DU-145 [5]): 0.9
- Surviving fraction (DU-145 [6]): 0.6
- Surviving fraction (DU-145 [7]): 0.55
- Surviving fraction (DU-145 [8]): 0.5
- Log effect (DU-145 [9]): -0.06
- Log effect (DU-145 [10]): 0.6

SMILES: CC(=O)N[C@@H](C(=O)NC1C(O)OC(CO)C(O)C1O)C(C)(C)SN=O (stereo not given in full)
- MED (DU-145 [3]): 32 µM
- Log effect (DU-145 [11]): 0 and -0.01

SMILES: CC(=O)N[C@@H](C(=O)O)C(C)(C)SN=O
- Surviving fraction (DU-145 [12]): 0.2
- Surviving fraction (DU-145 [13]): 1
- Surviving fraction (DU-145 [14]): 1
- MED (DU-145 [3]): 110 µM
- Log effect (DU-145 [15]): 0
- Surviving fraction (DU-145 [16]): 0.6
- Surviving fraction (DU-145 [17]): 0.5
- Log effect (DU-145 [10]): 0

From ChEMBL document CHEMBL1131826, “Targeting nitric oxide to cancer cells: cytotoxicity studies of glyco-S-nitrosothiols” (1999)
